Where two headings read alike, the source gives them in different places.
System: P. falciparum (NF54 or 3D7 strain)
Test: Assay for P. falciparum proliferation in infected human blood cells (SYBR Green)
Format: cell-based, Plasmodium falciparum
Details: Plasmodium falciparum, Erythrocyte, 72 h, read-out: EC50 (nM), inhibitory efficacy in delaying P. falciparum proliferation in infected human blood cells
Outline: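 Infected erythrocytes (NF54 or 3D7; final 2.5% hematocrit, 0.3% parasitemia) were incubated with compounds for 72 h at 37 °C in low oxygen (3% O2, 4% CO2, 93% N2).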

[1] = NF54 or 3D7 infected human erythrocytes, 72 hours

SMILES | EC50 [1] [nM] | EC50 [nM]
CN(C(=O)c1cn2c(-c3ccc(OC(C)(C)CN)cc3)cnc2cn1)c1ccc(C#N)cc1 [Compound 402, 3-{4-[(1-amino-2-methylpropan-2-yl)oxy]phenyl}-N-(4-cyanophenyl)-N-methylimidazo[1,2-a]pyrazine-6-carboxamide] | 3610 | –
CN(C(=O)c1cn2c(-c3ccc(C(F)(F)F)cc3)cnc2cn1)c1ccc(-n2cncn2)nc1 [Compound 365, N-methyl-N-[6-(1H-1,2,4-triazol-1-yl)pyridin-3-yl]-3-[4-(trifluoromethyl)phenyl]imidazo[1,2-a]pyrazine-6-carboxamide] | 6140 | –
CN(C(=O)c1cn2c(-c3ccc(Cl)cc3)cnc2cn1)c1ccc(Cl)cc1Cl [Compound 70, 3-(4-chlorophenyl)-N-(2,4-dichlorophenyl)-N-methylimidazo[1,2-a]pyrazine-6-carboxamide] | 230 | –
CC(C)c1ccc(-c2cnc3cnc(C(=O)N(C)c4ccc(C#N)cc4)cn23)cc1 [Compound 115, N-(4-cyanophenyl)-N-methyl-3-[4-(propan-2-yl)phenyl]imidazo[1,2-a]pyrazine-6-carboxamide] | 82 | –
COc1ncc(N(C)C(=O)c2cn3c(-c4ccc(C(F)(F)F)cc4)cnc3cn2)cc1C [Compound 288, N-(6-methoxy-5-methylpyridin-3-yl)-N-methyl-3-[4-(trifluoromethyl)phenyl]imidazo[1,2-a]pyrazine-6-carboxamide] | 565 | –
O=C(c1cn2c(-c3ccc(C(F)(F)F)cc3)cnc2cn1)N1CCOc2cc(F)ccc21 [Compound 305, 7-fluoro-4-({3-[4-(trifluoromethyl)phenyl]imidazo[1,2-a]pyrazin-6-yl}carbonyl)-3,4-dihydro-2H-1,4-benzoxazine] | 457 | –
Cc1ccncc1N(C)C(=O)c1cn2c(-c3ccc(C(F)(F)F)cc3)cnc2cn1 [Compound 309, N-methyl-N-(4-methylpyridin-3-yl)-3-[4-(trifluoromethyl)phenyl]imidazo[1,2-a]pyrazine-6-carboxamide] | 611 | –
CN(C(=O)c1cn2c(-c3ccc(S(=O)(=O)N(C)C)cc3)cnc2cn1)c1ccc(C#N)cc1 [Compound 197, N-(4-cyanophenyl)-3-[4-(dimethylsulfamoyl)phenyl]-N-methylimidazo[1,2-a]pyrazine-6-carboxamide] | > 10000 | –
CN(C(=O)c1ccc(C(F)(F)F)nc1)c1cn2c(-c3ccc(C(F)(F)F)cc3)cnc2cn1 [Compound 308, N-methyl-6-(trifluoromethyl)-N-{3-[4-(trifluoromethyl)phenyl]imidazo[1,2-a]pyrazin-6-yl}pyridine-3-carboxamide] | 2020 | –
COc1ccc(-c2cnc3cnc(C(=O)N(C)c4ccc(F)c(F)c4)cn23)cc1 [Compound 431, N-(3,4-difluorophenyl)-3-(4-methoxyphenyl)-N-methylimidazo[1,2-a]pyrazine-6-carboxamide] | 82 | –
COc1cc(F)ccc1N(C)C(=O)c1cn2c(-c3ccc(C(F)(F)F)cc3)cnc2cn1 [Compound 430, N-(4-fluoro-2-methoxyphenyl)-N-methyl-3-[4(trifluoromethyl)phenyl]imidazo[1,2-a]pyrazine] | 17 | –
CN(C(=O)c1cn2c(-c3ccc4[nH]ccc4c3)cnc2cn1)c1ccc(C#N)cc1 [Compound 428, N-(4-cyanophenyl)-3-(1H-indol-5-yl)-N-methylimidazo[1,2-a]pyrazine-6-carboxamide] | 276 | –
O=C(Nc1ccc(C(F)(F)F)cc1)c1cn2c(-c3ccc(C(F)(F)F)cc3)cnc2cn1 [Compound 445, N,3-bis[4-(trifluoromethyl)phenyl]imidazo[1,2-a]pyrazine-6-carboxamide] | – | > 10000
CN(Cc1cn2c(-c3ccc(-c4nnc(N)s4)cc3)cnc2cn1)c1ccc(Cl)nc1 [Compound 28, -({3-[4-(5-amino-1,3,4-thiadiazol-2-yl)phenyl]imidazo[1,2-a]pyrazin-6-yl}methyl)-6-chloro-N-methylpyridin-3-amine] | 13 | –
CC(=O)Nc1ccc(-c2cnc3cnc(C(=O)N(C)c4ccc(C)cn4)cn23)cn1 [Compound 373, 3-(6-acetamidopyridin-3-yl)-N-methyl-N-(5-methylpyridin-2-yl)imidazo[1,2-a]pyrazine-6-carboxamide] | > 9880 | –
CCCOc1ccc(-c2cnc3cnc(C(=O)N(C)c4ccc(C#N)cc4)cn23)cn1 [Compound 170, N-(4-cyanophenyl)-N-methyl-3-(6-propoxypyridin-3-yl)imidazo[1,2-a]pyrazine-6-carboxamide] | 4070 | –
CN(C(=O)c1cn2c(-c3cnn(C)c3)cnc2cn1)c1ccc(C#N)cc1 [Compound 189, N-(4-cyanophenyl)-N-methyl-3-(1-methyl-1H-pyrazol-4-yl)imidazo[1,2-a]pyrazine-6-carboxamide] | 7890 | –
COc1ccccc1N(C)C(=O)c1cn2c(-c3ccc(C(F)(F)F)cc3)cnc2cn1 [Compound 110, N-(2-methoxyphenyl)-N-methyl-3-[4-(trifluoromethyl)phenyl]imidazo[1,2-a]pyrazine-6-carboxamide] | 188 | –

SMILES | EC50 [1] [nM] | EC50 [nM]
CN(C(=O)c1cn2c(-c3ccc(C(F)(F)F)cc3)cnc2cn1)c1ncc(Cl)cc1F [Compound 6, N-(5-chloro-3-fluoropyridin-2-yl)-N-methyl-3-(4-(trifluoromethyl)phenyl)imidazo[1,2-a]pyrazine-6-carboxamide] | 619 | –
COc1cccc(-c2cnc3cnc(C(=O)N(C)c4ccc(C#N)cc4)cn23)c1 [Compound 48, N-(4-cyanophenyl)-3-(3-methoxyphenyl)-N-methylimidazo[1,2-a]pyrazine-6-carboxamide] | 5100 | –
Cc1ccc(N(C)Cc2cn3c(-c4ccc(C(F)(F)F)cc4)cnc3cn2)cc1 [Compound 263, N,4-dimethyl-N-({3-[4-(trifluoromethyl)phenyl]imidazo[1,2-a]pyrazin-6-yl}methyl)aniline] | 436 | –
CN(C(=O)c1cn2c(-c3ccc4c(ccn4C)c3)cnc2cn1)c1ccc(F)c(F)c1 [Compound 127, N-(3,4-difluorophenyl)-N-methyl-3-(1-methyl-1H-indol-5-yl)imidazo[1,2-a]pyrazine-6-carboxamide] | 236 | –
COC(=O)Nc1ccc(-c2cnc3cnc(C(=O)N(C)c4ccc(Cl)nc4)cn23)cc1 [Compound 245, methyl N-(4-{6-[(6-chloropyridin-3-yl)(methyl)carbamoyl]imidazo[1,2-a]pyrazin-3-yl}phenyl)carbamate] | 226 | –
CC(=O)Nc1ccc(-c2cnc3cnc(C(=O)N(C)c4ccc(Cl)nc4)cn23)cc1 [Compound 279, N-(6-chloropyridin-3-yl)-3-(4-acetamidophenyl)-N-methylimidazo[1,2-a]pyrazine-6-carboxamide] | 454 | –
CN(C(=O)c1cn2c(-c3cnn(Cc4ccccc4)c3)cnc2cn1)c1ccc(C#N)cc1 [Compound 178, 3-(1-benzyl-1H-pyrazol-4-yl)-N-(4-cyanophenyl)-N-methylimidazo[1,2-a]pyrazine-6-carboxamide] | 6510 | –
CC(=O)Nc1ccc(-c2cnc3cnc(CN(C)c4ccc(C#N)cc4)cn23)cn1 [Compound 226, N-[5-(6-{[(4-cyanophenyl)(methyl)amino]methyl}imidazo[1,2-a]pyrazin-3-yl)pyridin-2-yl]acetamide] | 37 | –
O=C1CN(C(=O)c2cn3c(-c4ccc(C(F)(F)F)cc4)cnc3cn2)c2ccccc2N1 [Compound 497, 4-({3-[4-(trifluoromethyl)phenyl]imidazo[1,2-a]pyrazin-6-yl}carbonyl)-1,2,3,4-tetrahydroquinoxalin-2-one] | > 9320 | –
CN(C(=O)c1cn2c(-c3ccc(C4CCCN4)cc3)cnc2cn1)c1ccc(C#N)cc1 (stereo not drawn) [Compound 193, N-(4-cyanophenyl)-N-methyl-3-[4-(pyrrolidin-2-yl)phenyl]imidazo[1,2-a]pyrazine-6-carboxamide] | 8590 | –
COc1ccc(C(=O)N(C)c2cn3c(-c4ccc(C(F)(F)F)cc4)cnc3cn2)cc1 [Compound 311, 4-methoxy-N-methyl-N-{3-[4-(trifluoromethyl)phenyl]imidazo[1,2-a]pyrazin-6-yl}benzamide] | 2780 | –
Cc1cc(-c2cnc3cnc(C(=O)N(C)c4ccc(C#N)cc4)cn23)ccn1 [Compound 378, N-(4-cyanophenyl)-N-methyl-3-(2-methylpyridin-4-yl)imidazo[1,2-a]pyrazine-6-carboxamide] | > 7030 | –
CN(C(=O)c1cn2c(-c3ccc4c(cnn4C)c3)cnc2cn1)c1ccc(Cl)cc1 [Compound 480, N-(4-chlorophenyl)-N-methyl-3-(1-methyl-1H-indazol-5-yl)imidazo[1,2-a]pyrazine-6-carboxamide] | 25 | –
Cc1ccc(-c2cnc3cnc(C(=O)N(C)c4ccc(C#N)cc4)cn23)cn1 [Compound 297, N-(4-cyanophenyl)-N-methyl-3-(6-methylpyridin-3-yl)imidazo[1,2-a]pyrazine-6-carboxamide] | 1290 | –
CN(C(=O)c1cn2c(-c3ccc(C#N)cc3)cnc2cn1)c1ccc(C(F)(F)F)cc1 [Compound 369, 3-(4-cyanophenyl)-N-methyl-N-[4-(trifluoromethyl)phenyl]imidazo[1,2-a]pyrazine-6-carboxamide] | 1160 | –
CC1(C)CCc2cc(F)ccc2N1C(=O)c1cn2c(-c3ccc(C(N)=O)cc3)cnc2cn1 [Compound 229, 4-{6-[(6-fluoro-2,2-dimethyl-1,2,3,4-tetrahydroquinolin-1-yl)carbonyl]imidazo[1,2-a]pyrazin-3-yl}benzamide] | 19 | –
CN(C(=O)c1cn2c(-c3ccc(C(F)(F)F)cc3)cnc2cn1)c1ccc(OC(F)F)cc1 [Compound 50, N-[4-(difluoromethoxy)phenyl]-N-methyl-3-[4-(trifluoromethyl)phenyl]imidazo[1,2-a]pyrazine-6-carboxamide] | 828 | –
Cc1ccc(N(C)Cc2cn3c(-c4ccc(C(F)F)cc4)cnc3cn2)nc1 [Compound 241, N-({3-[4-(difluoromethyl)phenyl]imidazo[1,2-a]pyrazin-6-yl}methyl)-N,5-dimethylpyridin-2-amine] | 262 | –

Source: patent US20150291598A1 (NOVARTIS AG, priority 2012, published 2015)
